Laboratory results taken from PubChem BioAssay (NCI).
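Grown in 96-well plates, cells were treated for 48 hours with each compound at five concentrations. Insufficient inhibition: endpoint recorded as highest concentration tested. GI50 marks 50% less growth. TGI marks complete inhibition of growth.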

What was measured:
Test in all cases: inhibition of tumour cell growth, NCI panel, 48 h
[1] = tested on: SNB-19 CNS
[2] = tested on: NCI-H522 lung
[3] = tested on: SK-MEL-28 melanoma
[4] = tested on: SF-295 CNS
[5] = tested on: M14 melanoma
[6] = tested on: SF-539 CNS
[7] = tested on: SN12C renal
[8] = tested on: NCI-H23 lung
[9] = tested on: UACC-257 melanoma
[10] = tested on: CAKI-1 renal

Structure (SMILES)	TGI [1] [µM]	TGI [2] [µM]	TGI [3] [µM]	TGI [4] [µM]	TGI [5] [µM]	TGI [6] [µM]	TGI [7] [µM]	TGI [8] [µM]	TGI [9] [µM]	TGI [10] [µM]	GI50 [1] [µM]	GI50 [2] [µM]	GI50 [3] [µM]	GI50 [4] [µM]	GI50 [5] [µM]	GI50 [6] [µM]	GI50 [7] [µM]	GI50 [8] [µM]	GI50 [9] [µM]	GI50 [10] [µM]
NC1=NC(c2ccccc2)CC(c2cc(Cl)cc(Br)c2O)=N1 (stereo not given)	33.3	15.4	28.9	23.7	28.7	25.4	30.3	26	36.2	26.8										
N#CC(C(=O)CCC(=O)Nc1ccc(Cl)cc1)c1ccccc1Cl (stereo not given)	> 100	> 100	> 100	> 100	> 100	> 100	> 100	> 100	> 100	> 100										
C[C@@H](Oc1cc(NS(=O)(=O)N2CCC2)nc(SCc2cccc(F)c2F)n1)[C@@H](O)CO	> 100	> 100	> 100	> 100	> 100	> 100	> 100	> 100	> 100	> 100	> 100	> 100	> 100	> 100	> 100	> 100	> 100	> 100	> 100	> 100
COc1ccccc1N1CCN(C(=O)c2ccc(NS(=O)(=O)c3cccc4cccnc34)cc2)CC1	> 85.5	> 88.5	> 100	> 100	> 100	> 100	> 100	> 100	> 100	> 100	29.5	22.2	> 100	> 39	> 100	> 54.4	> 100	> 67.2	> 100	> 100
CNC(=O)c1cncc(/C=C/c2c(C)cccc2C)c1	> 25	> 25	> 25	> 25	> 25	> 25	> 25	> 25	> 25	> 25	> 25	> 17.8	> 25	> 25	> 25	14.5	20.6	> 25	> 25	10.2
CC(C)Cc1ccc(C(C)/C=C2\CCC(CN3CCCC3)C2=O)cc1 (stereo not given)	26.4	3.13	28.4	30.8	29.6	15.4	13.3	26.6	31.1	28										
C=CCCC(C)N(C(=O)OC(C)(C)C)S(=O)(=O)c1ccc(C)cc1 (stereo not given)	> 100	> 100	> 100	> 100	> 100	> 100	> 100	> 100	> 100	> 100										
CC(=O)Nc1ccc2oc(=O)c3ccccc3c2c1	> 100	> 100	> 100	> 100	> 100	> 100	> 100	> 100	> 100	> 100										
N/C(=N\c1nc2ccccc2s1)NC(=O)Nc1ccccc1Cl	> 69.5	11.9	> 100	1.74	2.14	0.834	> 50.1	18.2	> 100	15.5	0.201	0.0439	3.59	0.106	0.0509	0.0853	0.916	0.305	18.6	0.0624
O=C1/C(=C/c2ccccc2)CN(CCC(=O)N2C/C(=C\c3ccccc3)C(=O)/C(=C/c3ccccc3)C2)C/C1=C\c1ccccc1	> 93.4	62.7	74.5	30	> 77.9	50.6	> 95.9	33.5	> 100	41.1	13.2	14.6	23.4	14.2	4.13	13.9	17.3	11.5	24.6	8.5
N=C1C(c2nc3ccccc3s2)=C(O)CN1c1ccc(Cl)cc1Cl	80.9	35.2	> 100	52.4	> 100	26.7	32.4	6.6	45.3	20.3	26.3	11.2	21	12.7	23.7	7.62	13.5	2.59	7	3.27
CC(=O)NC1C(OCc2ccccc2)OC(COC(=O)CCCCCNc2ccc([N+](=O)[O-])c3[nH]c4ccc(O)cc4c(=O)c23)C(O)C1OC(C)C(=O)N[C@@H](C)C(=O)N[C@H](CCC(=O)OCc1ccccc1)C(N)=O (stereo not given in full)	19.6	3.61	6.9	17	3.15	15.4	18.7	3.14	6.38	4.21										
